Experimental data published in ChEMBL document CHEMBL3885881, “DrugMatrix”.

Species on record: Rattus norvegicus
Test: DrugMatrix - Regimen: Daily Repeat
Type: toxicity, organism-based, Sprague-Dawley
Set-up: regimen Daily Repeat, gender Male, age 6-8 weeks
Conditions: in vivo, sc, route subcutaneous, […]; for ABSOLUTE BASOPHIL / ABSOLUTE EOSINOPHIL / ABSOLUTE LYMPHOCYTE / ABSOLUTE MONOCYTE / BASOPHIL / EOSINOPHIL / ERYTHROCYTE COUNT / HEMATOCRIT / HEMOGLOBIN / LEUKOCYTE COUNT / LYMPHOCYTE / MEAN CORPUSCULAR HEMOGLOBIN / MEAN CORPUSCULAR HEMOGLOBIN CONCENTRATION / MEAN CORPUSCULAR VOLUME / MONOCYTE / NEUTROPHIL / NUCLEATED RED BLOOD CELLS / PLATELET COUNT: tissue Blood; for ALANINE AMINOTRANSFERASE / ALBUMIN / ASPARTATE AMINOTRANSFERASE / BLOOD UREA NITROGEN / CARBON DIOXIDE / CHLORIDE / CHOLESTEROL / CREATINE PHOSPHOKINASE / CREATININE / GLUCOSE / LACTATE DEHYDROGENASE / LIPASE / PHOSPHORUS / POTASSIUM / SODIUM / TOTAL BILIRUBIN / TOTAL PROTEIN / URIC ACID: tissue Plasma
[1] = 64 mg/kg, 120 h, dose level Low, time 5 day
[2] = 636 mg/kg, 72 h, dose level High, time 3 day
[3] = 636 mg/kg, 120 h, dose level High, time 5 day

Compound: Nc1ccc(S(N)(=O)=O)cc1 [SULFANILAMIDE]
- ABSOLUTE BASOPHIL [1]: 0 CELLS/uL
- ABSOLUTE EOSINOPHIL [1]: 0 CELLS/uL
- ABSOLUTE LYMPHOCYTE [1]: 12536.33 CELLS/uL
- ABSOLUTE MONOCYTE [1]: 42.67 CELLS/uL
- BASOPHIL [1]: 0%
- EOSINOPHIL [1]: 0%
- ERYTHROCYTE COUNT [1]: 5.85 x10E6/uL
- HEMATOCRIT [1]: 36.4%
- HEMOGLOBIN [1]: 13.6 G/DL
- LEUKOCYTE COUNT [1]: 13.6 x10E3/uL
- LYMPHOCYTE [1]: 92.67%
- MEAN CORPUSCULAR HEMOGLOBIN [1]: 23.33 pg
- MEAN CORPUSCULAR HEMOGLOBIN CONCENTRATION [1]: 37.4 G/DL
- MEAN CORPUSCULAR VOLUME [1]: 62.37 fL
- MONOCYTE [1]: 0.33%
- NEUTROPHIL [1]: 7%
- NUCLEATED RED BLOOD CELLS [1]: 0.33 /100WBC
- PLATELET COUNT [1]: 1318 x10E3/uL
- ALANINE AMINOTRANSFERASE [1]: 52 u/L
- ALBUMIN [1]: 4.03 G/DL
- ASPARTATE AMINOTRANSFERASE [1]: 72 u/L
- BLOOD UREA NITROGEN [1]: 15.67 mg/dL
- CARBON DIOXIDE [1]: 26.33 mmol/L
- CHLORIDE [1]: 105.33 MEQ/L
- CHOLESTEROL [1]: 72.33 mg/dL
- CREATINE PHOSPHOKINASE [1]: 187 u/L
- CREATININE [1]: 0.27 mg/dL
- GLUCOSE [1]: 156.33 mg/dL
- LACTATE DEHYDROGENASE [1]: 102.33 u/L
- LIPASE [1]: 11 u/L
- PHOSPHORUS [1]: 12.07 mg/dL
- POTASSIUM [1]: 7.26 MEQ/L
- SODIUM [1]: 145.23 MEQ/L
- TOTAL BILIRUBIN [1]: 0.23 mg/dL
- TOTAL PROTEIN [1]: 5.9 G/DL
- URIC ACID [1]: 1.87 mg/dL
- ABSOLUTE BASOPHIL [2]: 0 CELLS/uL
- ABSOLUTE EOSINOPHIL [2]: 116 CELLS/uL
- ABSOLUTE LYMPHOCYTE [2]: 13223.33 CELLS/uL
- ABSOLUTE MONOCYTE [2]: 374 CELLS/uL
- BASOPHIL [2]: 0%
- EOSINOPHIL [2]: 0.67%
- ERYTHROCYTE COUNT [2]: 5.74 x10E6/uL
- HEMATOCRIT [2]: 35.33%
- HEMOGLOBIN [2]: 12.9 G/DL
- LEUKOCYTE COUNT [2]: 15.8 x10E3/uL
- LYMPHOCYTE [2]: 83.67%
- MEAN CORPUSCULAR HEMOGLOBIN [2]: 22.47 pg
- MEAN CORPUSCULAR HEMOGLOBIN CONCENTRATION [2]: 36.5 G/DL
- MEAN CORPUSCULAR VOLUME [2]: 61.53 fL
- MONOCYTE [2]: 2.33%
- NEUTROPHIL [2]: 13.33%
- NUCLEATED RED BLOOD CELLS [2]: 0 /100WBC
- PLATELET COUNT [2]: 1297.33 x10E3/uL
- ALANINE AMINOTRANSFERASE [2]: 71 u/L
- ALBUMIN [2]: 3.97 G/DL
- ASPARTATE AMINOTRANSFERASE [2]: 90.33 u/L
- BLOOD UREA NITROGEN [2]: 18.67 mg/dL
- CARBON DIOXIDE [2]: 25 mmol/L
- CHLORIDE [2]: 103 MEQ/L
- CHOLESTEROL [2]: 101.33 mg/dL
- CREATINE PHOSPHOKINASE [2]: 400.67 u/L
- CREATININE [2]: 0.16 mg/dL
- GLUCOSE [2]: 181.67 mg/dL
- LACTATE DEHYDROGENASE [2]: 100.67 u/L
- LIPASE [2]: 10 u/L
- PHOSPHORUS [2]: 12.37 mg/dL
- POTASSIUM [2]: 5.81 MEQ/L
- SODIUM [2]: 145.13 MEQ/L
- TOTAL BILIRUBIN [2]: 0.2 mg/dL
- TOTAL PROTEIN [2]: 5.67 G/DL
- URIC ACID [2]: 2.4 mg/dL
- ABSOLUTE BASOPHIL [3]: 0 CELLS/uL
- ABSOLUTE EOSINOPHIL [3]: 129.33 CELLS/uL
- ABSOLUTE LYMPHOCYTE [3]: 15741.33 CELLS/uL
- ABSOLUTE MONOCYTE [3]: 353 CELLS/uL
- BASOPHIL [3]: 0%
- EOSINOPHIL [3]: 0.67%
- ERYTHROCYTE COUNT [3]: 5.45 x10E6/uL
- HEMATOCRIT [3]: 34.17%
- HEMOGLOBIN [3]: 12.6 G/DL
- LEUKOCYTE COUNT [3]: 18.03 x10E3/uL
- LYMPHOCYTE [3]: 86.33%
- MEAN CORPUSCULAR HEMOGLOBIN [3]: 23.13 pg
- MEAN CORPUSCULAR HEMOGLOBIN CONCENTRATION [3]: 36.87 G/DL
- MEAN CORPUSCULAR VOLUME [3]: 62.7 fL
- MONOCYTE [3]: 2%
- NEUTROPHIL [3]: 11%
- NUCLEATED RED BLOOD CELLS [3]: 0 /100WBC
- PLATELET COUNT [3]: 1550 x10E3/uL
- ALANINE AMINOTRANSFERASE [3]: 66 u/L
- ALBUMIN [3]: 3.8 G/DL
- ASPARTATE AMINOTRANSFERASE [3]: 77 u/L
- BLOOD UREA NITROGEN [3]: 21.67 mg/dL
- CARBON DIOXIDE [3]: 26.67 mmol/L
- CHLORIDE [3]: 105.33 MEQ/L
- CHOLESTEROL [3]: 81.33 mg/dL
- CREATINE PHOSPHOKINASE [3]: 230.33 u/L
- CREATININE [3]: 0.16 mg/dL
- GLUCOSE [3]: 165.33 mg/dL
- LACTATE DEHYDROGENASE [3]: 107.33 u/L
- LIPASE [3]: 9 u/L
- PHOSPHORUS [3]: 12.53 mg/dL
- POTASSIUM [3]: 7.05 MEQ/L
- SODIUM [3]: 144.3 MEQ/L
- TOTAL BILIRUBIN [3]: 0.2 mg/dL
- TOTAL PROTEIN [3]: 5.63 G/DL
- URIC ACID [3]: 1.93 mg/dL
